Source: article PMC3931744, “Discovery of Selective Inhibitors of the Clostridium difficile Dehydroquinate Dehydratase” (PLoS ONE, 2014)
Where “and” joins values, the source holds several entries; their conditions need not be identical. Equal values may be shown once. Read-outs that look alike come from different tables or passages of the source.

Legend:
[1] = biological target: T1, cdDHQD (Clostridioides difficile, UniProt Q186A6); details: 10 µM DHQD, 100 µM compound
[2] = biological target: T2, vcDHQD (type II DHQD) (Vibrio cholerae, UniProt Q9KV60); assay: vcDHQD inhibition, DHQD panel; assay type: biochemical
T2 sequence (Q9KV60 1-150): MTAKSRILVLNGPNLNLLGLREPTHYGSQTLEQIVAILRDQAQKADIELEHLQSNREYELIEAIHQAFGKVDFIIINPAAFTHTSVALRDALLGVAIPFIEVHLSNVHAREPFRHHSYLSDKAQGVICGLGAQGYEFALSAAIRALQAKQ

[3] = biological target: T3, seDHQD (Salmonella typhimurium, UniProt P58687); assay: NMR line broadening with seDHQD; assay type: binding, Salmonella enterica; details: similar compound concentrations; 10 µM DHQD, 100 µM compound
Source text: Supplementary Figure S2. NMR data for binding of compounds 1 and 2 to cdDHQD. (A) Line broadening observed for compound 1 upon addition of cdDHQD or seDHQD. (B) Line broadening observed for compound 2 upon addition of cdDHQD or seDHQD. […] Line widths were estimated using NMRDraw (Delaglio et al., 1995).

[4] = biological target: T1, cdDHQD; assay: biochemical
[5] = biological target: ypDHQD (type II DHQD) (Yersinia pestis, UniProt Q8ZAX1); assay: biochemical
[6] = biological target: T1, cdDHQD; assay: biochemical; set-up: species or system Clostridium difficile
[7] = biological target: T4, btDHQD (type II DHQD) (Bacteroides thetaiotaomicron, UniProt Q8A3W2); assay: btDHQD inhibition, primary screen DHQD assay
T4 sequence (Q8A3W2 1-140): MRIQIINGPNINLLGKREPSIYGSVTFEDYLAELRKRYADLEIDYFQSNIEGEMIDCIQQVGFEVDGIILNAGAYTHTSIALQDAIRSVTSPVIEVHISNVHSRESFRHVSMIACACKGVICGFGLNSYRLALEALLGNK

[8] = biological target: T3, seDHQD; assay: WaterLOGSY NMR titration with seDHQD; details: Kd for binding to seDHQD (WaterLOGSY), PBS pH 7.2, 25°C
[9] = biological target: T1, cdDHQD; assay: biochemical; details: Kd for binding to cdDHQD (WaterLOGSY), NMR titration; PBS pH 7.2, 25°C
[10] = type II DHQD, read-out: IC50 vcDHQD
[11] = Kd for binding to cdDHQD (line broadening, double reciprocal plot), NMR, PBS pH 7.2, 25°C
[12] = Kd for binding to cdDHQD, fit of single resonances, NMR titration, two different resonances per compound (Figure 3A, 3B)
[13] = 200 µM compound, substrate up to 5 mM

T3 sequence (P58687 whole entry): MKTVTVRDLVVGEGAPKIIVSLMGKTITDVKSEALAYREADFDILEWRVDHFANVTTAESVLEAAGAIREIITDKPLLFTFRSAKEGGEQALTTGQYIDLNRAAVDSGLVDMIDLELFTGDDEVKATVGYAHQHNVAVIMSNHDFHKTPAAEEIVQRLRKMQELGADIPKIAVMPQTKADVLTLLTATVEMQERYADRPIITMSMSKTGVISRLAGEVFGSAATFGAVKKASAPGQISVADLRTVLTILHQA
T1 sequence (Q186A6 whole entry): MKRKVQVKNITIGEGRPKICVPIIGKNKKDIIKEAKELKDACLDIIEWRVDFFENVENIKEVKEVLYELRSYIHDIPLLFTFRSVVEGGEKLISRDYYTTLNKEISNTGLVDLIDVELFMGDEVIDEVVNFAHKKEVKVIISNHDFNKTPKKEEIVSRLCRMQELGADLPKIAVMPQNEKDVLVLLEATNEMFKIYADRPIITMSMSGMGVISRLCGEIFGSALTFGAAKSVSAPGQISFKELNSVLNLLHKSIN
Sequence of ypDHQD (type II DHQD) (Q8ZAX1 whole entry, looked up): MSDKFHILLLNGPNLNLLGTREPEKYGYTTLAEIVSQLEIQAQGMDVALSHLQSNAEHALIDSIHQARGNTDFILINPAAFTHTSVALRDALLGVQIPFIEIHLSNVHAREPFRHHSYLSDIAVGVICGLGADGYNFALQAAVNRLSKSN

Row | SMILES | line broadening of compound resonances with cdDHQD [1] [Hz] | IC50 [2, 10] [µM] | line broadening of compound resonances with seDHQD [3] [Hz] | Kd [4, 11] | Kd [4, 12] | IC50 [5] [µM] | Ki [6] [µM] | IC50 [7] [µM] | IC50 [2] [µM] | Kd [8] | Vmax in presence of inhibitor [6, 13] | increase of apparent Km [6, 13] [fold] | mechanism of inhibition ([6]; from Km/Vmax at high substrate) | Kd [9]
1 | O=S(=O)(Nc1nc(-c2ccccc2)cs1)c1cc(Cl)ccc1Cl [Compound 1] | > 6 | > 200 | < 1 | ~27 µM and ~25 µM | 35 µM and 18 µM | > 200 | 11 to 15 | > 200 |  |  |  |  |  | 
2 | COc1ccc2nc(NS(=O)(=O)c3cc(Cl)ccc3Cl)sc2c1 [Compound 2] | > 6 |  | < 1 | ~25 µM | 15 µM and 34 µM | > 200 |  | > 200 | > 200 |  |  |  |  | 
3 | O=C(O)c1ccccc1NC(=O)c1csc2c1CCCC2 [Compound 3] |  | > 200 |  |  |  | > 200 | 19 to 22 | > 200 |  | ~400 µM and ~390 µM | unchanged | 10 | competitive | ~65 µM and 67 µM
